Assay results as given in publication PMC7377239, “Cardiovascular Effects of Polychlorinated Biphenyls and Their Major Metabolites” (Environmental Health Perspectives, 2020).
Where two headings read alike, the source gives them in different places.

Legend:
[1] = tested on: HUVECs; experiment: Tube formation (tubulogenesis) assay in HUVECs, 18 h; format: cell-based, human; settings: Homo sapiens, HUVEC, 18 h; for activity at 0.01 µM: concentration 0.01 µM; for activity at 0.1 µM: concentration 0.10 µM; for activity at 1 µM: concentration 1.00 µM; for activity at 10 µM: concentration 10.00 µM; for activity at 100 µM: concentration 100.00 µM
Outline: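 HUVECs (passage 1–5) seeded on reduced-growth-factor basement membrane and exposed to compounds overnight at 37°C, 5% CO2, in 2× maintenance medium with 12.5 ng/mL VEGF; 0.5% DMSO vehicle. Calcein AM-stained tube networks imaged and analysed; vehicle-normalized readouts fit to four-parameter logistic, POD set at one SD of vehicle means.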

[2] = tested on: iCell endothelial cells (human iPSC-derived ECs); experiment: High-content imaging cytotoxicity in iCell endothelial cells, 24 h; format: cell-based; settings: for viability at 0.01 µM / activity at 0.01 µM / viability at 0.1 µM / activity at 0.1 µM / viability at 1 µM / activity at 1 µM / viability at 10 µM / activity at 10 µM / viability at 100 µM / activity at 100 µM / minimal effective concentration: Homo sapiens, Endothelial cell; for viability at 0.1 µM / activity at 0.1 µM: 0.10 µM
Outline: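 Readouts were vehicle-normalised and fitted to a four-parameter logistic model. POD was set at one SD beyond 0.5% DMSO control means, and 100 µM was assigned when no response was seen. Cells were monolayers of iCell endothelial cells imaged after 24 h compound exposure using nuclear, mitochondrial and calcein dyes.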

[3] = HUVECs tube formation, 0.00 µM = 100.00, read-out: huvec.mtl.18hr
[4] = HUVECs tube formation, 0.00 µM = 100.00, read-out: huvec.tlps.18hr
[5] = HUVECs tube formation, 0.00 µM = 100.00, read-out: huvec.tta.18hr
[6] = HUVECs tube formation, 0.00 µM = 100.00, read-out: huvec.ttl.18hr
[7] = iPSC-EC, 0.00 µM = 100.00, read-out: endo.cyto.24hr
[8] = iPSC-EC, 0.00 µM = 100.00, read-out: endo.mito.24hr
[9] = iPSC-EC, 0.00 µM = 100.00, read-out: endo.mitoint.24hr
[10] = iPSC-EC, 0.00 µM = 100.00, read-out: endo.nma.24hr
[11] = iPSC-EC, 0.00 µM = 100.00, read-out: endo.tc.24hrs

## Clc1ccc(-c2cc(Cl)c(Cl)c(Cl)c2)cc1Cl [PCB126]
[1]; HUVECs tube formation, MAX 100.00, read-out: huvec.mtl.18hr POD
  minimal effective concentration: 100 µM
[1]; HUVECs tube formation, MAX 100.00, read-out: huvec.tlps.18hr POD
  minimal effective concentration: 100 µM
[1]; HUVECs tube formation, MAX 100.00, read-out: huvec.tta.18hr POD
  minimal effective concentration: 100 µM
[1]; HUVECs tube formation, MAX 100.00, read-out: huvec.ttl.18hr POD
  minimal effective concentration: 100 µM
[1]; [3]
  activity at 0.01 µM: 93.6%
  activity at 0.1 µM: 98.7%
  activity at 1 µM: 87.8%
  activity at 10 µM: 89.6%
  activity at 100 µM: 83.2%
[1]; [4]
  activity at 0.01 µM: 51.1%
  activity at 0.1 µM: 67.7%
  activity at 1 µM: 61.4%
  activity at 10 µM: 52.3%
  activity at 100 µM: 59.4%
[1]; [5]
  activity at 0.01 µM: 51.1%
  activity at 0.1 µM: 80.9%
  activity at 1 µM: 77.3%
  activity at 10 µM: 94.3%
  activity at 100 µM: 92.7%
[1]; [6]
  activity at 0.01 µM: 53.8%
  activity at 0.1 µM: 84.3%
  activity at 1 µM: 83.6%
  activity at 10 µM: 100%
  activity at 100 µM: 88.9%
[2]; [7]
  viability at 0.01 µM: 100%
  viability at 0.1 µM: 95%
  viability at 1 µM: 93.4%
  viability at 10 µM: 87.7%
  viability at 100 µM: 75.3%
[2]; [8]
  activity at 0.01 µM: 99.1%
  activity at 0.1 µM: 95.2%
  activity at 1 µM: 93.4%
  activity at 10 µM: 87.6%
  activity at 100 µM: 74.9%
[2]; [9]
  activity at 0.01 µM: 79.8%
  activity at 0.1 µM: 106%
  activity at 1 µM: 100%
  activity at 10 µM: 110%
  activity at 100 µM: 151%
[2]; [10]
  activity at 0.01 µM: 97.4%
  activity at 0.1 µM: 97.8%
  activity at 1 µM: 101%
  activity at 10 µM: 103%
  activity at 100 µM: 98.8%
[2]; [11]
  viability at 0.01 µM: 100%
  viability at 0.1 µM: 95%
  viability at 1 µM: 93.4%
  viability at 10 µM: 87.7%
  viability at 100 µM: 76.9%
[2]; iPSC-EC, 100.00 = highest concentration tested, read-out: endo.cyto.24hr POD
  minimal effective concentration: 0.33 µM
[2]; iPSC-EC, 100.00 = highest concentration tested, read-out: endo.mito.24hr POD
  minimal effective concentration: 0.33 µM
[2]; iPSC-EC, 100.00 = highest concentration tested, read-out: endo.mitoint.24hr POD
  minimal effective concentration: 10.2 µM
[2]; iPSC-EC, 100.00 = highest concentration tested, read-out: endo.nma.24hr POD
  minimal effective concentration: 100 µM
[2]; iPSC-EC, 100.00 = highest concentration tested, read-out: endo.tc.24hrs POD
  minimal effective concentration: 0.34 µM

## Clc1cccc(-c2cccc(Cl)c2)c1 [PCB 11, 3,3′-Dichlorobiphenyl]
[1]; tube formation mtl, read-out: POD huvec.mtl.18hr
  minimal effective concentration: 100 µM
[1]; tube formation tlps, read-out: POD huvec.tlps.18hr
  minimal effective concentration: 41.8 µM
[1]; tube formation tta, read-out: POD huvec.tta.18hr
  minimal effective concentration: 100 µM
[1]; tube formation ttl, read-out: POD huvec.ttl.18hr
  minimal effective concentration: 100 µM
[2]; endothelial cells (endo), cyto, 24 hr, read-out: POD endo.cyto.24hr
  minimal effective concentration: 100 µM
[2]; endothelial cells (endo), mito, 24 hr, read-out: POD endo.mito.24hr
  minimal effective concentration: 100 µM
[2]; endothelial cells (endo), mitoint, 24 hr, read-out: POD endo.mitoint.24hr
  minimal effective concentration: 100 µM
[2]; endothelial cells (endo), nma, 24 hr, read-out: POD endo.nma.24hr
  minimal effective concentration: 100 µM
[2]; endothelial cells (endo), tc, 24 hr, read-out: POD endo.tc.24hr
  minimal effective concentration: 100 µM
[2]; iPSC-ECs, 0.01-100 μM
  effect on cell viability in iPSC-ECs: did not affect cell viability
